Assay results: patent US12533390B2, “Methods and compositions for treatment of Endothelin B receptor expressing tumors” (ENB Therapeutics, Inc., priority 2015, dated 2026)
Entries after “also recorded” stand apart in the source; their conditions may differ.

Experiments:
[1] = tested on: A375 human melanoma cells; experiment: Subcutaneous A375 human melanoma xenograft in Nu/J nude mice; format: in vivo; conditions: Dabrafenib 100 mg/Kg PO daily, alone or with BQ788 600 ng IP TIW; A375 tumors 150-200 mm3 at start
Method: FIG. 7. BQ788 synergizes with Dabrafenib in vivo. A375 human melanoma cells were implanted subcutaneously into the rear flank of Nu/J nude mice and allowed to grow to 150 mm3-200 mm3 prior to randomization and initiation of treatment. The mice received the following treatments: (1) vehicle (n=8), (2) Dabrafenib 100 mg/Kg PO daily (n=5), and (3) Dabrafenib+BQ788 600 ng IP TIW (n=5).
BQ788 synergizes with a bRAF inhibitor in vivo (FIG. 7). A375 human melanoma cells (3×10^6) were implanted subcutaneously into the rear flank of Nu/J nude mice and allowed to grow to 150 mm3-200 mm3 prior to randomization and initiation of treatment. The treatment groups were as follows: (1) vehicle (n=8), Dabrafenib 100 mg/Kg PO daily (n=5), (2) Dabrafenib+BQ788 600 ng IP 3 x per week (n=5).

[2] = tested on: SKMEL28 human melanoma cells; experiment: SKMEL28 human melanoma xenograft in mice, tumor weight and lung metastases; format: in vivo
Method: BQ788 inhibits melanoma growth and metastasis (FIGS. 4A and 4B). […] Mice were implanted with 1×10^6 SKMEL28 human melanoma cells. Tumors were established for 10 days until palpable then 120 ng ([…]) BQ788 dissolved in DMSO was injected IP 3× per week x 6 weeks. Mice were then sacrificed and lungs harvested and tumors weighed. A 75% reduction in tumor weight was observed.

[3] = Body weight of athymic nude mice under intranasal BQ788 over 42 days; format: in vivo
Method: FIG. 9. ETAR antagonist and Niacinamide mitigate weight loss from BQ788. Six week old athymic nude mice were administered the ETBR antagonist BQ788 intranasally in 20% DMSO at the indicated ascending doses over a period of 42 days. One group was additionally administered the ETAR antagonist Macitentan orally at a dose of 5 mg/kg daily. The drinking water of these mice was supplemented with the B vitamin niacinamide at a concentration of 0.3 mg/mL. […] Animals thus treated were able to maintain body weight throughout the study. Co-administration of ETAR antagonists and niacinamide with ETBR antagonists mitigated the adverse effects of ETBR antagonists when administered for therapeutic purposes.
ETAR antagonist and Niacinamide mitigate weight loss from BQ788 ([…]). Six week old athymic nude mice (n=3 per group) were administered the ETBR antagonist BQ788 intranasally in 20% DMSO at the indicated ascending doses over a period of 42 days. One group was additionally administered the ETAR antagonist Macitentan orally at a dose of 5 mg/kg daily. The drinking water of these mice was supplemented with the B vitamin niacinamide at a concentration of 0.3 mg/mL. […] Animals thus treated were able to maintain body weight throughout the study. […]

ETBR = target: T1, ETBR (Homo sapiens, UniProt P24530); conditions: ETBR antagonist, no method given, cited from earlier work
T1 sequence (P24530 27-442): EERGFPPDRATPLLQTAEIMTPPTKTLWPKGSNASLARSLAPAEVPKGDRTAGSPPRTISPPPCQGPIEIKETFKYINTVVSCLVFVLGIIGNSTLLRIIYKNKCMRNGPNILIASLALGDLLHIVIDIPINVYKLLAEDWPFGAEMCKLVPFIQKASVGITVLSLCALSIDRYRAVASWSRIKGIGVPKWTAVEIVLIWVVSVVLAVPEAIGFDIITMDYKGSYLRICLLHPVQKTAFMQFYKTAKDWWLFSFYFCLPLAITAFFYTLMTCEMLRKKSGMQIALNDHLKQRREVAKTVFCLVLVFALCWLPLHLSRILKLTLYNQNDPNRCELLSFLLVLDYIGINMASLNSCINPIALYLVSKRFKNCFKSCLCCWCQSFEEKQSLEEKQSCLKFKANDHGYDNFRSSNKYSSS

[4] = tested on: melanoma cell lines overexpressing ETBR; experiment: Mouse melanoma brain metastasis model, xenografts of ETBR-overexpressing melanoma cell lines; format: in vivo, mice; conditions: A192621 60 mg/kg/day
Method: FIGS. 5A, 5B, 5C, 5D, and 5E. ETBR antagonist inhibits melanoma brain metastasis in mice. […] In this study, lentiviral vectors were used to overexpress ETBR in melanoma cell lines, which were in turn used to implant xenografts in mice.
A192621 inhibits melanoma brain metastasis in mice (FIGS. 5A, 5B, 5C, 5D, and 5E). […] A192621 was administered at a dose of 60 mg/kg/day using a mouse melanoma model. […] In this study, lentiviral vectors were used to overexpress ETBR in melanoma cell lines, which were in turn used to implant xenografts in mice. […]

In the case of CC(C)(C)c1nc(-c2cccc(NS(=O)(=O)c3c(F)cccc3F)c2F)c(-c2ccnc(N)n2)s1 [Dabrafenib], the tumor growth [1] is reported as “retarded the growth of tumors; also recorded: retarded tumor growth”.
In the case of CCCC[C@@H](NC(=O)[C@@H](Cc1cn(C(=O)OC)c2ccccc12)NC(=O)[C@H](CC(C)(C)C)NC(=O)N1[C@H](C)CCC[C@@H]1C)C(=O)[O][Na+] [BQ788], the “reduction in tumor weight” value ([2]; 120 ng (~60 μg/kg) BQ788 in DMSO IP 3x per week x 6 weeks, SKMEL28 tumors in mice) is reported as 75%, the “clearance of lung metastases” value ([2]; 120 ng BQ788 IP 3x per week x 6 weeks, lung specimens vs control mice) is reported as > 95% and the “average weight loss relative to baseline body weight” value ([3]; BQ788 alone intranasally in 20% DMSO, ascending doses, end of 42 day study) is reported as 5%. For the same compound, the “effect on body weight / thriving” value ([3]; BQ788 intranasally, ascending doses over 42 days, with or without Macitentan 5 mg/kg orally daily and niacinamide 0.3 mg/mL in drinking water) was “failed to thrive”, the IC50 (ETBR; for BQ788 printed as inhibitor of ETBR-related melanoma cell growth) was 1.2 nM and the Ki (ETBR) was 17.8 nM.
With CCCOc1ccc([C@H]2[C@H](C(=O)O)[C@@H](c3ccc4c(c3)OCO4)CN2CC(=O)Nc2c(CC)cccc2CC)cc1 [A192621, (2R,3R,4S)-4-(1,3-benzodioxol-5-yl)-1-[2-(2,6-diethylanilino)-2-oxoethyl]-2-(4-propoxyphenyl) pyrrolidine-3-carboxylic acid] the CNS melanoma tumors [4] was “shrinks CNS melanoma tumors”, the brain melanoma metastases [4] was “shrinks brain melanoma metastases” and the survival [4] was “increases survival”.
